Results published in patent US20250213536A1, “DETECTING AND TREATING GROWTH HORMONE DEFICIENCY” (Lumos Pharma, Inc., priority 2015, published 2025).
“Also recorded” adds a separate entry of the source. Where a name gives a salt, the structure may show the parent alone.

Key:
[1] = tested on: GHD children; experiment: Phase IIb therapeutic study in pediatric GH deficiency: height velocity after 6 months of treatment; type: in vivo, human; conditions: for Delta Height Velocity, Biological Age (BA) / Delta Height Velocity, Chronological Age (CA): general population of GHD children; for height velocity in the LOW group compared with the EQUAL group, in words: 6 months of treatment; for growth (height velocity) response, GH compared with MK-0677, in words: 6 months
Description: In the Phase IIb study, 24 children were treated with 0.8 mg/kg/d MK-0677. […] This can also be expressed as a height velocity standard deviation (SD) (or standard deviations-also SD) at baseline of 0.4±2.1 and 3.5±2.0 at 6 months. […] Change in height velocity SD for chronological age was 0.4±2.1 for placebo and 3.5±2.0 for treatment with MK-0677 after 6 months at a dose of 0.8 mg/kg/d. Twenty of the 22 placebo-treated children were then treated with standard Growth Hormone (GH) treatment (daily subcutaneous injection of rhGH, 0.043 mg/kg/day). […] Therapeutic Study in Pediatric GH Deficiency: A Phase IIb study was run to determine whether or not MK-0677 could be used to treat pediatric GHD. MK-0677 was compared against placebo and rhGH injections according to the following protocol. Bone age was determined using the atlas matching method of Greulich and Pyle. Protocol: 6 months of once-daily oral sucrose formulation solution. Tables 6A-6E show the height velocity for EQUAL growth potential children treated with either 0.8 mg/kg/daily po or 0.4 mg/kg/daily po MK-0677 compared with rhGH (0.3 mg/kg/week; ˜42 μg/kg/daily sc injection). […] Values are mean (SD). Tables 7A-7C compare the height velocity for low growth potential patients (LOW) with equivalent growth potential compared to rhGH (EQUAL). Values are mean (SD).

[2] = tested on: hypothalamic-pituitary GH axis; experiment: MK-0677 challenge test: peak serum GH after a single oral dose of MK-0677; type: in vivo, human; conditions: for Peak GH response to MK-0677: baseline; for Peak GH to MK-0677: single dose 0.8 mg/kg
Description: Testing for GH secretion with MK-0677: A single, oral dose of MK-0677 is administered to a patient and sufficient blood samples are taken prior to and after administration (e.g., 15 minutes before and t=0, 30, 60, 90, and 120 minutes after administration) to measure the peak GH secretion. An example of the amount of MK-0677 administered is 0.8 mg/kg. In an aspect, the patient being tested will have fasted overnight (abstinence from all food and drink but water). [table] Subjects will report to the clinic in the morning after an overnight fast from all food and drink except water. A catheter will be inserted approximately 1 hour before the administration of MK 0677. Two baseline measures will be taken a t=−15 minutes and t=0 minutes (time at which subject is administered the dose). Subjects will be given a dose of 0.8 mg/kg MK-0677 as 2-mg tablets to be taken orally. Blood samples will be taken subsequently at t=30, 60, 90, 120 minutes. In addition at t=−15 and 120 minutes, samples will be drawn for a serum chemistry panel. At the conclusion of the test, the catheter will be removed. All blood samples will be analyzed for GH, prolactin, and cortisol by a core clinical laboratory.

[3] = tested on: GHD children; conditions: cited from earlier work
[4] = Adequate GH Secretion Potential, MK-0677 0.8 mg/kg/d (N = 15)
[5] = Low GH Secretion Potential, MK-0677 0.8 mg/kg/d (N = 9)
[6] = Adequate GH Secretion Potential, GH 0.3 mg/kg/wk (N = 15)
[7] = GH after placebo 0.3 mg/kg/week (n = 20)
[8] = Low GH Secretion Potential, GH 0.3 mg/kg/wk (N = 5)

CC(C)(N)C(=O)N[C@H](COCc1ccccc1)C(=O)N1CCC2(CC1)CN(S(C)(=O)=O)c1ccccc12 [MK-0677, Ibutamoren mesylate]
Delta Height Velocity, Biological Age (BA) ([1]; 0.4 mg/kg/d (n = 22)): 2.6 (1.5) standard deviations | Delta Height Velocity, Chronological Age (CA) ([1]; 0.4 mg/kg/d (n = 22)): 2.6 (1.7) standard deviations | Delta Height Velocity, Biological Age (BA) ([1]; 0.8 mg/kg/d (n = 22)): 3.3 (1.8) standard deviations | Delta Height Velocity, Chronological Age (CA) ([1]; 0.8 mg/kg/d (n = 22)): 3.5 (2.0) standard deviations | height velocity in the LOW group compared with the EQUAL group, in words [1]: lower than with the EQUAL group | Delta height velocity [1, 4]: 3.4 (1.4) cm/year | Height velocity SD for BA [1, 4]: 3.8 (1.3) | Height velocity SD for CA [1, 4]: 3.8 (1.7) | Height Velocity ([1]; EQUAL (N = 12), 6-Month MK 0.4 mg/kg/day): 6.2 (1.8) | Height Velocity ([1]; EQUAL (N = 14), 6-Month MK 0.8 mg/kg/day): 7.6 (1.3) | growth (height velocity) response, GH compared with MK-0677, in words ([1]; EQUAL patient group (peak GH ≥5 μg/L to MK-0677 and baseline IGF-I >30 μg/L)): equal to GH treatment; also recorded: does not differ significantly from that to GH; also recorded: equivalent growth response | Height Velocity ([1]; LOW (N = 10), 6-Month MK 0.4 mg/kg/day): 5.8 (2.1) | Height Velocity ([1]; LOW (N = 10), 6-Month MK 0.8 mg/kg/day): 5.8 (2.2) | Height Velocity ([1]; LOW and EQUAL combined, 6-Month MK 0.4 mg/kg/day (N = 22), mean (SD)): 6.0 (1.9) | Height Velocity ([1]; LOW and EQUAL combined, 6-Month MK 0.8 mg/kg/day (N = 24), mean (SD)): 6.9 (1.9) | growth (height velocity) response, GH compared with MK-0677, in words ([1]; LOW growth potential / severely GH deficient patients): inadequate growth response; also recorded: less responsive | Delta height velocity [1, 5]: 2.3 (2.0) cm/year | Height velocity SD for BA [1, 5]: 2.6 (2.4) | Height velocity SD for CA [1, 5]: 2.9 (2.5) | Height Velocity ([1]; equivalent growth potential, after 6 months of MK-677 0.8 mg/kg (N = 14)): 7.6 (1.3) cm/year | Height Velocity ([1]; low growth potential, after 6 months of MK-677 0.8 mg/kg (N = 10)): 5.8 (2.2) cm/year | growth response, GH compared with MK-0677, in words ([1]; patients with adequate GH secretion potential (Table 4B)): comparable with GH and was not statistically different | Peak GH response to MK-0677 ([2]; Adequate GH Secretion Potential, group later given Placebo followed by rhGH (N = 15)): 39.2 (28.8) μg/L | Peak GH response to MK-0677 ([2]; Adequate GH Secretion Potential, group later treated with MK-0677 0.8 mg/kg/d (N = 15)): 41.3 (27.8) μg/L | Peak GH response to MK-0677 ([2]; Low GH Secretion Potential, group later given Placebo followed by rhGH (N = 5)): 2.9 (0.6) μg/L | Peak GH response to MK-0677 ([2]; Low GH Secretion Potential, group later treated with MK-0677 0.8 mg/kg/d (N = 9)): 3.2 (1.3) μg/L | Peak GH response to MK-0677 ([2]; equivalent growth potential, Placebo group later switched to rhGH (N = 13)): 51.2 (25.3) μg/L | Peak GH response to MK-0677 ([2]; equivalent growth potential, group later treated with MK-0677 0.8 mg/kg (N = 14)): 43.7 (27.1) μg/L | Peak GH response to MK-0677 ([2]; low growth potential, Placebo group later switched to rhGH (N = 9)): 6.7 (5.9) μg/L | Peak GH response to MK-0677 ([2]; low growth potential, group later treated with MK-0677 0.8 mg/kg (N = 10)): 3.6 (1.7) μg/L | Peak GH to MK-0677 ([2]; All subjects (73)): 32 ± 3.5 µg/L | Peak GH to MK-0677 ([2]; High Potential (≥5 μg/L), 49 subjects): 43 ± 30 µg/L | Peak GH to MK-0677 ([2]; Low Potential (≤5 μg/L), 24 subjects): 3.0 ± 1.0 µg/L | growth rate at 6 months ([3]; MK-0677 0.8 mg/kg/d, 24 children, Merck Phase IIb study): 6.8±2.0 cm/y | Change in height velocity SD for chronological age ([3]; MK-0677 0.8 mg/kg/d, after 6 months): 3.5±2.0 | change in growth rate ([3]; MK-0677 0.8 mg/kg/d, baseline to 6 months, 24 children): 3.4±2.1 cm/y

rhGH: recombinant human growth hormone given as daily subcutaneous injection, standard GH therapy
height velocity in the LOW group compared with the EQUAL group, in words [1]: greater in the LOW group than in the EQUAL group | Delta height velocity [1, 6]: 4.9 (2.9) cm/year | Height velocity SD for BA [1, 6]: 4.9 (2.6) | Height velocity SD for CA [1, 6]: 5.1 (2.8) | Height Velocity ([1]; EQUAL (N = 11), 6-Month rhGH): 8.8 (1.8) | Delta Height Velocity, Biological Age (BA) [1, 7]: 6.2 (3.4) standard deviations | Delta Height Velocity, Chronological Age (CA) [1, 7]: 7.6 (5.6) standard deviations | Height Velocity ([1]; LOW (N = 9), 6-Month rhGH): 14.0 (4.1) | Height Velocity ([1]; LOW and EQUAL combined, 6-Month GH 0.3 mg/kg/week (N = 20), mean (SD)): 11.1 (4.0) | Height Velocity ([1]; LOW and EQUAL combined, GH (12-Month): 6 months rhGH after 6 months placebo (N = 20), paired T-test table): 11.14 (3.96) | growth (height velocity) response, GH compared with MK-0677, in words ([1]; LOW growth potential / severely GH deficient patients, listed as GH): extremely sensitive to GH; also recorded: increase in height velocity | Delta height velocity [1, 8]: 12.3 (4.4) cm/year | Height velocity SD for BA [1, 8]: 10.0 (2.2) | Height velocity SD for CA [1, 8]: 15.1 (5.1) | Height Velocity ([1]; equivalent growth potential, after 6 months of GH ~42 μg/kg/day (N = 11)): 8.8 (1.8) cm/year | Height Velocity ([1]; low growth potential, after 6 months of GH ~42 μg/kg/day (N = 9)): 14.0 (4.1) cm/year | growth (height velocity) response, GH compared with MK-0677, in words ([1]; overall patient group, GH 0.3 mg/kg/week sc vs MK-0677 0.8 mg/kg/day oral): superior to MK-0677 | growth response, GH compared with MK-0677, in words ([1]; patients with low GH secretion potential (Table 3B)): superior | height velocity SD score for chronological age ([3]; rhGH 0.043 mg/kg/day daily sc, 20 children after 6 months of placebo): 7.6±5.6 | increase in height velocity SD, GH compared with MK-0677 ([3]; rhGH 0.043 mg/kg/day vs MK-0677 0.8 mg/kg/d): twice as high
